Reference: ChEMBL document CHEMBL1201862, “PubChem BioAssay data set” (2004)
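How tested: cells in 96-well plates exposed to compound for 48 hours at five concentrations. GI50 = concentration required for 50% inhibition of growth.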 Activity calls are given as the source filed them. Rule as the data show it: active = GI50 up to about 1.1 µM and inactive = higher.

Assays:
Experiment in all cases: growth of human tumour cells (NCI), 48 h
[1] = system: SNB-75
[2] = system: MDA-MB-231
[3] = system: PC-3
[4] = system: CAKI-1
[5] = system: Hs-578T
[6] = system: UO-31
[7] = system: A549
[8] = system: NCI-H522
[9] = system: OVCAR-4
[10] = system: SK-MEL-5
[11] = system: UACC-257
[12] = system: HCC 2998
[13] = system: SF-295
[14] = system: K562
[15] = system: SW-620
[16] = system: SN12C
[17] = system: RPMI-8226
[18] = system: MOLT-4

Row | SMILES | GI50 [1] | GI50 [2] | GI50 [3] | GI50 [4] | GI50 [5] | GI50 [6] | GI50 [7] | GI50 [8] | GI50 [9] | GI50 [10] | GI50 [11] | GI50 [12] | GI50 [13] | GI50 [14] | GI50 [15] | GI50 [16] | GI50 [17] | GI50 [18]
1 | COc1ccc(C2c3cc4c(cc3OC(N3CCOCC3)C2C)OCO4)c(OC)c1 (stereo not given) | 3.95 µM (inactive) | 8.69 µM (inactive) | 7.6 µM (inactive) | 4.47 µM (inactive) | 1.97 µM (inactive) | 9.06 µM (inactive) | 7.43 µM (inactive) | 2.68 µM (inactive) | 10 µM (inactive) | 2.81 µM (inactive) | 6.3 µM (inactive) | 4.17 µM (inactive) | 3.48 µM (inactive) | 3.02 µM (inactive) | 3.72 µM (inactive) | 10.7 µM (inactive) | 3.15 µM (inactive) | 3.58 µM (inactive)
2 | O=C(O)Cc1cccnc1 | > 100 µM (inactive) | > 100 µM (inactive) | > 100 µM (inactive) | > 100 µM (inactive) | > 100 µM (inactive) | > 100 µM (inactive) | > 100 µM (inactive) | > 100 µM (inactive) | > 100 µM (inactive) | > 100 µM (inactive) | > 100 µM (inactive) | > 100 µM (inactive) | > 100 µM (inactive) | > 100 µM (inactive) | > 100 µM (inactive) | > 100 µM (inactive) | > 100 µM (inactive) | > 100 µM (inactive)
3 | CC(=O)c1ccc2c(c1)CC1(C2)Cc2ccc3c(c2C1=O)CCC3 (stereo not given) | 20 µM (inactive) | 35.6 µM (inactive) | 21.6 µM (inactive) | 23.2 µM (inactive) | 31.5 µM (inactive) | 28.4 µM (inactive) | 23.4 µM (inactive) | 19.1 µM (inactive) | 19.2 µM (inactive) | 13.3 µM (inactive) | 10.8 µM (inactive) | 15 µM (inactive) | 31 µM (inactive) | 15 µM (inactive) | 41 µM (inactive) | 31.8 µM (inactive) | 16.1 µM (inactive) | 14.9 µM (inactive)
4 | C=C(Cl)/C(=C\Cl)CCC(Cl)C(C)C (stereo not given) | > 100 µM (inactive) | > 100 µM (inactive) | > 100 µM (inactive) | > 100 µM (inactive) | > 100 µM (inactive) | > 100 µM (inactive) | > 100 µM (inactive) | 59.4 µM (inactive) | > 100 µM (inactive) | > 100 µM (inactive) | > 100 µM (inactive) | > 100 µM (inactive) | > 100 µM (inactive) | 54.3 µM (inactive) | 74.3 µM (inactive) | > 100 µM (inactive) | 65.2 µM (inactive) | 44.2 µM (inactive)
5 | CC(C)OC(=O)[C@@H]1OC(C)(C)O[C@H]1C(=O)OC(C)C | > 100 µM (inactive) | > 100 µM (inactive) | > 100 µM (inactive) | > 100 µM (inactive) | > 100 µM (inactive) | > 100 µM (inactive) | > 100 µM (inactive) | > 100 µM (inactive) | > 100 µM (inactive) | > 100 µM (inactive) | > 100 µM (inactive) | > 100 µM (inactive) | > 100 µM (inactive) | > 100 µM (inactive) | > 100 µM (inactive) | > 100 µM (inactive) | > 100 µM (inactive) | > 100 µM (inactive)
6 | CC1(C)CCC(=O)NC1CC(=O)CC1NC(=O)CCC1(C)C (stereo not given) | > 100 µM (inactive) | > 100 µM (inactive) | > 100 µM (inactive) | > 100 µM (inactive) | > 100 µM (inactive) | > 100 µM (inactive) | > 100 µM (inactive) | > 100 µM (inactive) | > 100 µM (inactive) | > 100 µM (inactive) | > 100 µM (inactive) | > 100 µM (inactive) | > 100 µM (inactive) | > 100 µM (inactive) | > 100 µM (inactive) | > 100 µM (inactive) | > 100 µM (inactive) | > 100 µM (inactive)
7 | N#CCCN(CCC#N)c1ccc(C(/N=N/c2ccccc2)=N\c2ccccc2)cc1 | > 100 µM (inactive) | > 100 µM (inactive) | > 100 µM (inactive) | > 100 µM (inactive) | > 100 µM (inactive) | > 100 µM (inactive) | > 100 µM (inactive) | 59.6 µM (inactive) | > 100 µM (inactive) | > 100 µM (inactive) | > 100 µM (inactive) | > 100 µM (inactive) | > 100 µM (inactive) | > 100 µM (inactive) | > 100 µM (inactive) | > 100 µM (inactive) | > 100 µM (inactive) | > 100 µM (inactive)
8 | Cn1c2ccccc2c2ccc3c(c21)C(=O)c1ccc2c4ccccc4n(C)c2c1C3=O | > 100 µM (inactive) | > 100 µM (inactive) | > 100 µM (inactive) | > 100 µM (inactive) | > 100 µM (inactive) | > 100 µM (inactive) | > 100 µM (inactive) | > 100 µM (inactive) | > 65.5 µM (inactive) | > 100 µM (inactive) | > 100 µM (inactive) | > 100 µM (inactive) | > 100 µM (inactive) | > 100 µM (inactive) | > 100 µM (inactive) | > 100 µM (inactive) | > 100 µM (inactive) | > 100 µM (inactive)
9 | C[C@]1(O)O[C@@H]2OCC[C@@H]2C2=C1C(=O)c1ccccc1C2=O | 29.6 µM (inactive) | 21.2 µM (inactive) | 22.1 µM (inactive) | 20.1 µM (inactive) | 30.3 µM (inactive) | 17.9 µM (inactive) | 17.9 µM (inactive) | 16.6 µM (inactive) | 12.5 µM (inactive) | 12.4 µM (inactive) | 17.1 µM (inactive) | 17.3 µM (inactive) | 18.7 µM (inactive) | 15.7 µM (inactive) | 18.4 µM (inactive) | 23 µM (inactive) | 3.62 µM (inactive) | 5.04 µM (inactive)
10 | Oc1ccccc1/C=N/c1nc2cc3sc(/N=C/c4ccccc4O)nc3cc2s1 | > 78 µM (inactive) | > 100 µM (inactive) | > 89.3 µM (inactive) | 37.2 µM (inactive) | 21.5 µM (inactive) | > 35.9 µM (inactive) | 6.98 µM (inactive) | 9.77 µM (inactive) | 69.7 µM (inactive) | > 47.9 µM (inactive) | > 100 µM (inactive) | > 100 µM (inactive) | > 54.3 µM (inactive) | 67.3 µM (inactive) | 20.7 µM (inactive) | > 60.5 µM (inactive) | > 35.3 µM (inactive) | 0.889 µM (active)
11 | CC1(C)CCCCCC(C)(CCCCCCCCCCCO)C1=O (stereo not given) | 16.3 µM (inactive) | 16.3 µM (inactive) | 16.1 µM (inactive) | 15.1 µM (inactive) | 16.3 µM (inactive) | 17 µM (inactive) | 15.1 µM (inactive) | 17.3 µM (inactive) | 15.5 µM (inactive) | 16.7 µM (inactive) | 14 µM (inactive) | 24.3 µM (inactive) | 15.7 µM (inactive) | 15.3 µM (inactive) | 18.4 µM (inactive) | 16.1 µM (inactive) | 20.9 µM (inactive) | 19.5 µM (inactive)
12 | CCN(CC)CCN1CCN=c2c3cc(OC)ccc3n3cnc4ccc1c2c43 | 0.714 µM (active) | 0.483 µM (active) | 0.391 µM (active) | 0.621 µM (active) | 1.63 µM (inactive) | 1.41 µM (inactive) | 0.425 µM (active) | 1.49 µM (inactive) | 0.274 µM (active) | 1.4 µM (inactive) | 1.29 µM (inactive) | 0.585 µM (active) | 0.548 µM (active) | 0.2 µM (active) | 0.0456 µM (active) | 0.429 µM (active) | 0.305 µM (active) | 0.0385 µM (active)
13 | CC1(C)CC2C=C(C=O)C3(C=O)CC3(C)C2C1 (stereo not given) | 1.89 µM (inactive) | 1.91 µM (inactive) | 1.12 µM (active) | 2.05 µM (inactive) | 2.24 µM (inactive) | 1.69 µM (inactive) | 10.2 µM (inactive) | 1.09 µM (active) | 1.73 µM (inactive) | 1.64 µM (inactive) | 2.38 µM (inactive) | 5.5 µM (inactive) | 4.5 µM (inactive) | 1.1 µM (active) | 0.582 µM (active) | 2.54 µM (inactive) | 0.378 µM (active) | 0.191 µM (active)
14 | C=C(Cl)C(Cl)(CBr)CCCC(C)(C)Cl (stereo not given) | 4.48 µM (inactive) | > 38.6 µM (inactive) | 3.25 µM (inactive) | 1.99 µM (inactive) | 2.98 µM (inactive) | 14.5 µM (inactive) | 14.6 µM (inactive) | 9.25 µM (inactive) | 2.55 µM (inactive) | 29.9 µM (inactive) | 3.15 µM (inactive) | 15.9 µM (inactive) | 7.55 µM (inactive) | > 42 µM (inactive) | 20.4 µM (inactive) | 60.8 µM (inactive) | 1.28 µM (inactive) | > 55.6 µM (inactive)
15 | O=C(/C=C/c1ccc(O)c(O)c1)NC(COC(=O)/C=C/c1ccc(O)c(O)c1)C(=O)O (stereo not given) | > 100 µM (inactive) | > 100 µM (inactive) | > 100 µM (inactive) | > 100 µM (inactive) | > 100 µM (inactive) | > 100 µM (inactive) | > 100 µM (inactive) | > 100 µM (inactive) | > 100 µM (inactive) | > 100 µM (inactive) | > 100 µM (inactive) | > 100 µM (inactive) | > 100 µM (inactive) | > 100 µM (inactive) | > 100 µM (inactive) | > 100 µM (inactive) | > 100 µM (inactive) | > 100 µM (inactive)
